Data as given in US20240287138A1, “CYCLIC PEPTIDES FOR INHIBITING TNF RECEPTOR 1 ACTIVITY” (Merck Sharp & Dohme LLC, priority 2023, published 2024).
pIC50, pKd: −log10 of the molar value. Numbered stars: 1 amine (or outer) side, 2 acyl side, 3 side chain; on linkers, the order of the positions; unused ones are H or OH. Bridge positions count the residues as written; N and C are the ends. Square brackets hold non-standard residues; d marks the D form. Peptide text beside a SMILES is read from it. Trp(βS-Me,7-OMe) = COc1cccc2c([C@H](C)[C@H](N)C(=O)O)c[nH]c12; X21 = COc1cccc2c([C@H](C)[C@H](N[*:1])C(=O)[*:2])c(C)[nH]c12; Trp(7-CN) = N#Cc1cccc2c(C[C@H](N)C(=O)O)c[nH]c12; Trp(7-Cl) = N[C@@H](Cc1c[nH]c2c(Cl)cccc12)C(=O)O; Phe(3-CONH2) = NC(=O)c1cccc(C[C@H](N)C(=O)O)c1; Phe(4-CONH2) = NC(=O)c1ccc(C[C@H](N)C(=O)O)cc1; Phe(4-COOH) = N[C@@H](Cc1ccc(C(=O)O)cc1)C(=O)O; Trp(7-aza) = N[C@@H](Cc1c[nH]c2ncccc12)C(=O)O; Pip(5R-OH) = O=C(O)[C@@H]1CC[C@@H](O)CN1; X4 = O=C([C@H]1C=C[C@@H](N[*:1])C1)[*:2]; αMeW = C[C@](N)(Cc1c[nH]c2ccccc12)C(=O)O; X1 = O=C([C@@H]1CC[C@H](N[*:1])C1)[*:2]; Gly(Nα-CH2CH2CONH2) = NC(=O)CCNCC(=O)O; 1Nal = N[C@@H](Cc1cccc2ccccc12)C(=O)O; 2Nal = N[C@@H](Cc1ccc2ccccc2c1)C(=O)O; X6 = O=C([C@@H](N[*:1])C1(O)CC1)[*:2]; Pip(4-aza) = O=C(O)[C@@H]1CNCCN1; hPhe = N[C@@H](CCc1ccccc1)C(=O)O; 4Pal = N[C@@H](Cc1ccncc1)C(=O)O; NMeE = CN[C@@H](CCC(=O)O)C(=O)O; dHyp = O=C(O)[C@H]1C[C@H](O)CN1; aThr = C[C@H](O)[C@H](N)C(=O)O; Ahp(2) = CCCCC[C@H](N)C(=O)O; αMeS = C[C@](N)(CO)C(=O)O; NMeA = CN[C@@H](C)C(=O)O; Nle = CCCC[C@H](N)C(=O)O; Sar = CNCC(=O)O

target: T1, human soluble TNFR1 (sTNFR1) (Homo sapiens, UniProt P19438); experiment: Human sTNFR1-peptide displacement assay (LanthaScreen Eu TR-FRET binding assay)
T1 construct: made in house; host or cells: Sf21 (baculovirus)
T1 sequence (P19438 with tags, fused parts or gaps): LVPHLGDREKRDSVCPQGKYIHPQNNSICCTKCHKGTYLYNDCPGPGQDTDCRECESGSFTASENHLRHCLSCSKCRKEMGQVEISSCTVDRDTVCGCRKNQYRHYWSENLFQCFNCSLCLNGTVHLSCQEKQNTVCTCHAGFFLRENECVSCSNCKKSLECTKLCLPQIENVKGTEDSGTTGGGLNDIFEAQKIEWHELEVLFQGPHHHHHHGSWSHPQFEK
Method in brief: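 Readout is the 665/615 nm TR-FRET ratio (Eu anti-His donor, streptavidin-Alexa647 acceptor), normalized to DMSO and saturating displacer, fit by Morrison-based five-parameter logistic for Kd^app. His-tagged sTNFR1 (1-211) prebound to 100 nM biotinylated peptide SEQ ID NO.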

`CCCCC[C@@H]1NC(=O)[C@@H]2CC[C@@H](C2)NC(=O)[C@H]([C@@H](C)c2c[nH]c3c(OC)cccc23)NC(=O)CN(C)C(=O)[C@H](Cc2cccc(C(N)=O)c2)NC(=O)[C@H](Cc2ccc(C(N)=O)cc2)NC(=O)[C@](C)(CO)NC(=O)[C@H](Cc2c[nH]c3c(C#N)cccc23)NC(=O)[C@H](Cc2ccc(C(=O)O)cc2)NC(=O)[C@H](CC(N)=O)NC(=O)CN(CCC(N)=O)C(=O)[C@H](Cc2c[nH]c3ccccc23)NC(=O)[C@@H]2CNCCN2C(=O)[C@H](Cc2ccncc2)NC1=O` [SEQ ID NO. 10] (cyclo([4Pal][Pip(4-aza)]W[Gly(Nα-CH2CH2CONH2)]N[Phe(4-COOH)][Trp(7-CN)][αMeS][Phe(4-CONH2)][Phe(3-CONH2)][Sar][Trp(βS-Me,7-OMe)][X1][Ahp(2)])) and `CCCC[C@@H]1NC(=O)[C@@H]2CC[C@@H](C2)NC(=O)[C@H]([C@@H](C)c2c[nH]c3c(OC)cccc23)NC(=O)CN(C)C(=O)[C@H](Cc2ccc(O)cc2)NC(=O)[C@H](Cc2ccc(C(=O)O)cc2)NC(=O)[C@](C)(CO)NC(=O)[C@H](Cc2c[nH]c3c(Cl)cccc23)NC(=O)[C@H](Cc2ccc(C(=O)O)cc2)NC(=O)[C@H](CC(N)=O)NC(=O)[C@H](CCC(=O)O)N(C)C(=O)[C@H](Cc2c[nH]c3ccccc23)NC(=O)[C@@H]2CNCCN2C(=O)[C@H](Cc2ccncc2)NC1=O` [SEQ ID NO. 288] (cyclo([4Pal][Pip(4-aza)]W[NMeE]N[Phe(4-COOH)][Trp(7-Cl)][αMeS][Phe(4-COOH)]Y[Sar][Trp(βS-Me,7-OMe)][X1][Nle])) are within 0.2 log units of each other in pKd: 10.00 for the first, 9.96 for the second.

`CCCC[C@@H]1NC(=O)[C@@H]2CC[C@@H](C2)NC(=O)[C@H]([C@@H](C)c2c[nH]c3c(OC)cccc23)NC(=O)CN(C)C(=O)[C@H](Cc2ccc(C(=O)O)cc2)NC(=O)[C@H](Cc2ccc(C(N)=O)cc2)NC(=O)[C@](C)(CO)NC(=O)[C@H](Cc2c[nH]c3c(Cl)cccc23)NC(=O)[C@H](Cc2ccncc2)NC(=O)[C@H]([C@H](C)O)NC(=O)[C@H]2C[C@H](O)CN2C(=O)[C@H](Cc2c[nH]c3ccccc23)NC(=O)[C@@H]2CC[C@@H](O)CN2C(=O)[C@H](Cc2ccncc2)NC1=O` [SEQ ID NO. 187] (cyclo([4Pal][Trp(7-Cl)][αMeS][Phe(4-CONH2)][Phe(4-COOH)][Sar][Trp(βS-Me,7-OMe)][X1][Nle][4Pal][Pip(5R-OH)]W[dHyp][aThr])) and `CCCC[C@@H]1NC(=O)[C@@H]2CC[C@@H](C2)NC(=O)[C@H]([C@@H](C)c2c[nH]c3c(OC)cccc23)NC(=O)CN(C)C(=O)[C@H](Cc2ccc(C(N)=O)cc2)NC(=O)[C@H](Cc2ccc(C(N)=O)cc2)NC(=O)[C@](C)(CO)NC(=O)[C@H](Cc2c[nH]c3c(C#N)cccc23)NC(=O)[C@H](Cc2ccc(C(=O)O)cc2)NC(=O)[C@H]([C@H](C)O)NC(=O)[C@H]2C[C@H](O)CN2C(=O)[C@H](Cc2c[nH]c3ncccc23)NC(=O)[C@@H]2CC[C@@H](O)CN2C(=O)[C@H](Cc2ccncc2)NC1=O` [SEQ ID NO. 122] (cyclo([4Pal][Pip(5R-OH)][Trp(7-aza)][dHyp][aThr][Phe(4-COOH)][Trp(7-CN)][αMeS][Phe(4-CONH2)][Phe(4-CONH2)][Sar][Trp(βS-Me,7-OMe)][X1][Nle])) are within 0.2 log units of each other in pKd: 10.05 for the first, 10.10 for the second.

Compared with `CCCC[C@@H]1NC(=O)CSC[C@@H](C(N)=O)NC(=O)[C@H]([C@@H](C)c2c[nH]c3c(OC)cccc23)NC(=O)CN(C)C(=O)[C@H](Cc2ccc(O)cc2)NC(=O)[C@H](Cc2ccc(C(=O)O)cc2)NC(=O)[C@](C)(CO)NC(=O)[C@H](Cc2c[nH]c3c(Cl)cccc23)NC(=O)[C@H](Cc2ccncc2)NC(=O)[C@H](CC(N)=O)NC(=O)[C@H](CCC(=O)O)N(C)C(=O)[C@H](Cc2c[nH]c3ncccc23)NC(=O)[C@@H]2CNCCN2C(=O)[C@H](CCc2ccccc2)NC1=O` [SEQ ID NO. 172] ({CH2CO}-[Nle][hPhe][Pip(4-aza)][Trp(7-aza)][NMeE]N[4Pal][Trp(7-Cl)][αMeS][Phe(4-COOH)]Y[Sar][Trp(βS-Me,7-OMe)]C-NH2; thioether N-14), `CCCC[C@@H]1NC(=O)[C@@H]2CC[C@@H](C2)NC(=O)[C@H]([C@@H](C)c2c(C)[nH]c3c(OC)cccc23)NC(=O)CN(C)C(=O)[C@H](Cc2ccc(C(=O)O)cc2)NC(=O)[C@H](Cc2ccc(C(N)=O)cc2)NC(=O)[C@](C)(CO)NC(=O)[C@H](Cc2c[nH]c3c(Cl)cccc23)NC(=O)[C@H](Cc2ccc(C(=O)O)cc2)NC(=O)[C@H](CC(N)=O)NC(=O)[C@H]2C[C@H](O)CN2C(=O)[C@H](Cc2c[nH]c3ccccc23)NC(=O)[C@@H]2CC[C@@H](O)CN2C(=O)[C@H](Cc2ccncc2)NC1=O` [SEQ ID NO. 106] (cyclo([4Pal][Pip(5R-OH)]W[dHyp]N[Phe(4-COOH)][Trp(7-Cl)][αMeS][Phe(4-CONH2)][Phe(4-COOH)][Sar][X21][X1][Nle])) is 1.06 log units higher in pKd: 9.24 for the first, 10.30 for the second.

Compound `C[C@H]1C(=O)N[C@@H](CC(N)=O)C(=O)N[C@@H](Cc2ccncc2)C(=O)N[C@@H](Cc2c[nH]c3ccccc23)C(=O)N[C@@](C)(CO)C(=O)N[C@@H](Cc2ccc(C(=O)O)cc2)C(=O)N[C@@H](Cc2ccc(O)cc2)C(=O)N(C)CC(=O)N[C@@H](Cc2c[nH]c3ccccc23)C(=O)N[C@@H]2C=C[C@@H](C2)C(=O)N[C@@H](CCc2ccccc2)C(=O)N[C@@H](Cc2ccncc2)C(=O)N[C@@H](CO)C(=O)N[C@@H](Cc2c[nH]c3ccccc23)C(=O)N1C` [SEQ ID NO. 248] (cyclo([4Pal]SW[NMeA]N[4Pal]W[αMeS][Phe(4-COOH)]Y[Sar]W[X4][hPhe])) has a pKd of 8.81.

Going from `C[C@H]1C(=O)N[C@@H](CC(N)=O)C(=O)N[C@@H](Cc2ccncc2)C(=O)N[C@@H](Cc2ccc3ccccc3c2)C(=O)N[C@@](C)(CO)C(=O)N[C@@H](Cc2ccc(C(=O)O)cc2)C(=O)N[C@@H](Cc2ccc(O)cc2)C(=O)N(C)CC(=O)N[C@@H](Cc2c[nH]c3ccccc23)C(=O)N[C@H](C(N)=O)CSCC(=O)N[C@@H](CCCCN)C(=O)N[C@@H](Cc2ccncc2)C(=O)N[C@@H](CO)C(=O)N[C@@H](Cc2cccc3ccccc23)C(=O)N1C` [SEQ ID NO. 227] ({CH2CO}-K[4Pal]S[1Nal][NMeA]N[4Pal][2Nal][αMeS][Phe(4-COOH)]Y[Sar]WC-NH2; thioether N-14) to `C[C@H]1C(=O)N[C@@H](CC(N)=O)C(=O)N[C@@H](Cc2ccncc2)C(=O)N[C@@H](Cc2c[nH]c3ccccc23)C(=O)N[C@@](C)(CO)C(=O)N[C@@H](Cc2ccc(C(=O)O)cc2)C(=O)N[C@@H](Cc2ccc(O)cc2)C(=O)N(C)CC(=O)N[C@@H](Cc2c[nH]c3ccccc23)C(=O)N[C@@H]2C=C[C@@H](C2)C(=O)N[C@@H](CCc2ccccc2)C(=O)N[C@@H](Cc2ccncc2)C(=O)N[C@@H](CO)C(=O)N[C@@H](Cc2c[nH]c3ccccc23)C(=O)N1C` [SEQ ID NO. 248] (cyclo([4Pal]SW[NMeA]N[4Pal]W[αMeS][Phe(4-COOH)]Y[Sar]W[X4][hPhe])), the pIC50 rises from 8.40 to 8.84 (0.44 log units). The second is the more potent here.

Compared with `CCCC[C@@H]1NC(=O)CSC[C@@H](C(N)=O)NC(=O)[C@H]([C@@H](C)c2c[nH]c3c(OC)cccc23)NC(=O)CN(C)C(=O)[C@H](Cc2ccc(O)cc2)NC(=O)[C@H](Cc2ccc(C(=O)O)cc2)NC(=O)[C@](C)(CO)NC(=O)[C@H](Cc2c[nH]c3c(Cl)cccc23)NC(=O)[C@H](Cc2ccncc2)NC(=O)[C@H](CC(N)=O)NC(=O)[C@H](CCC(=O)O)N(C)C(=O)[C@H](Cc2c[nH]c3ncccc23)NC(=O)[C@@H]2CNCCN2C(=O)[C@H](CCc2ccccc2)NC1=O` [SEQ ID NO. 172] ({CH2CO}-[Nle][hPhe][Pip(4-aza)][Trp(7-aza)][NMeE]N[4Pal][Trp(7-Cl)][αMeS][Phe(4-COOH)]Y[Sar][Trp(βS-Me,7-OMe)]C-NH2; thioether N-14), `CCCC[C@@H]1NC(=O)[C@@H]2CC[C@@H](C2)NC(=O)[C@H]([C@@H](C)c2c[nH]c3c(OC)cccc23)NC(=O)CN(C)C(=O)[C@H](Cc2ccc(O)cc2)NC(=O)[C@H](Cc2ccc(C(=O)O)cc2)NC(=O)[C@](C)(CO)NC(=O)[C@H](Cc2c[nH]c3c(Cl)cccc23)NC(=O)[C@H](Cc2ccc(C(=O)O)cc2)NC(=O)[C@H](CC(N)=O)NC(=O)[C@H](CCC(=O)O)N(C)C(=O)[C@H](Cc2c[nH]c3ccccc23)NC(=O)[C@@H]2CNCCN2C(=O)[C@H](Cc2ccncc2)NC1=O` [SEQ ID NO. 288] (cyclo([4Pal][Pip(4-aza)]W[NMeE]N[Phe(4-COOH)][Trp(7-Cl)][αMeS][Phe(4-COOH)]Y[Sar][Trp(βS-Me,7-OMe)][X1][Nle])) is 0.50 log units higher in pIC50: 9.20 for the first, 9.70 for the second. The second is the more potent here.

In the case of `CCCC[C@@H]1NC(=O)CSC[C@@H](C(N)=O)NC(=O)[C@](C)(Cc2c[nH]c3ccccc23)NC(=O)CN(C)C(=O)[C@H](Cc2ccc(O)cc2)NC(=O)[C@H](Cc2ccc(C(=O)O)cc2)NC(=O)[C@](C)(CO)NC(=O)[C@H](Cc2c[nH]c3c(Cl)cccc23)NC(=O)[C@H](Cc2ccncc2)NC(=O)[C@H](CC(N)=O)NC(=O)[C@H](CCC(=O)O)N(C)C(=O)[C@H](Cc2c[nH]c3ncccc23)NC(=O)[C@H](C2(O)CC2)NC(=O)[C@H](Cc2ccncc2)NC1=O` [SEQ ID NO. 281] ({CH2CO}-[Nle][4Pal][X6][Trp(7-aza)][NMeE]N[4Pal][Trp(7-Cl)][αMeS][Phe(4-COOH)]Y[Sar][αMeW]C-NH2; thioether N-14), the pIC50 was 8.85.
